This experiment has as its target T1, BRM (Homo sapiens, UniProt P51531).
T1 construct: In-Cell Western Screen of BRM Degradation in SW1573 Cells; endogenous in cells; host or cells: SW1573
Kind of experiment: In-cell Western screen of BRM degradation in SW1573 cells (Dmax and DC50). Format: cell-based. The method in brief:
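SW1573 cells were treated overnight (18-20 hours) with compound at 0.1% final DMSO. They were then PFA-fixed, permeabilised with Triton X-100 and immunostained with 800 nm/680 nm secondary antibodies. BRM signal was quantified by LI-COR in-cell Western imaging to derive Dmax and DC50.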

The mark [1] stands for this setting: SW1573, % degraded, when tested at the top concentration of between 0.3 and 10 μM, read-out: BRM Dmax (%).
Setting [2] is: BRM degradation, SW1573 cells, read-out: DC50.
The mark [3] stands for this setting: BRM degradation, SW1573 cells, read-out: Dmax (% degraded).
Setting [4] is: BRM degradation, SW1573 cells, Table 2D, read-out: *DC50.
[5] abbreviates: target protein degradation, read-out: BRM DC50.

The structures appear in SMILES notation. Read-outs that look alike come from different tables or passages of the source.

T1 sequence (P51531 whole entry): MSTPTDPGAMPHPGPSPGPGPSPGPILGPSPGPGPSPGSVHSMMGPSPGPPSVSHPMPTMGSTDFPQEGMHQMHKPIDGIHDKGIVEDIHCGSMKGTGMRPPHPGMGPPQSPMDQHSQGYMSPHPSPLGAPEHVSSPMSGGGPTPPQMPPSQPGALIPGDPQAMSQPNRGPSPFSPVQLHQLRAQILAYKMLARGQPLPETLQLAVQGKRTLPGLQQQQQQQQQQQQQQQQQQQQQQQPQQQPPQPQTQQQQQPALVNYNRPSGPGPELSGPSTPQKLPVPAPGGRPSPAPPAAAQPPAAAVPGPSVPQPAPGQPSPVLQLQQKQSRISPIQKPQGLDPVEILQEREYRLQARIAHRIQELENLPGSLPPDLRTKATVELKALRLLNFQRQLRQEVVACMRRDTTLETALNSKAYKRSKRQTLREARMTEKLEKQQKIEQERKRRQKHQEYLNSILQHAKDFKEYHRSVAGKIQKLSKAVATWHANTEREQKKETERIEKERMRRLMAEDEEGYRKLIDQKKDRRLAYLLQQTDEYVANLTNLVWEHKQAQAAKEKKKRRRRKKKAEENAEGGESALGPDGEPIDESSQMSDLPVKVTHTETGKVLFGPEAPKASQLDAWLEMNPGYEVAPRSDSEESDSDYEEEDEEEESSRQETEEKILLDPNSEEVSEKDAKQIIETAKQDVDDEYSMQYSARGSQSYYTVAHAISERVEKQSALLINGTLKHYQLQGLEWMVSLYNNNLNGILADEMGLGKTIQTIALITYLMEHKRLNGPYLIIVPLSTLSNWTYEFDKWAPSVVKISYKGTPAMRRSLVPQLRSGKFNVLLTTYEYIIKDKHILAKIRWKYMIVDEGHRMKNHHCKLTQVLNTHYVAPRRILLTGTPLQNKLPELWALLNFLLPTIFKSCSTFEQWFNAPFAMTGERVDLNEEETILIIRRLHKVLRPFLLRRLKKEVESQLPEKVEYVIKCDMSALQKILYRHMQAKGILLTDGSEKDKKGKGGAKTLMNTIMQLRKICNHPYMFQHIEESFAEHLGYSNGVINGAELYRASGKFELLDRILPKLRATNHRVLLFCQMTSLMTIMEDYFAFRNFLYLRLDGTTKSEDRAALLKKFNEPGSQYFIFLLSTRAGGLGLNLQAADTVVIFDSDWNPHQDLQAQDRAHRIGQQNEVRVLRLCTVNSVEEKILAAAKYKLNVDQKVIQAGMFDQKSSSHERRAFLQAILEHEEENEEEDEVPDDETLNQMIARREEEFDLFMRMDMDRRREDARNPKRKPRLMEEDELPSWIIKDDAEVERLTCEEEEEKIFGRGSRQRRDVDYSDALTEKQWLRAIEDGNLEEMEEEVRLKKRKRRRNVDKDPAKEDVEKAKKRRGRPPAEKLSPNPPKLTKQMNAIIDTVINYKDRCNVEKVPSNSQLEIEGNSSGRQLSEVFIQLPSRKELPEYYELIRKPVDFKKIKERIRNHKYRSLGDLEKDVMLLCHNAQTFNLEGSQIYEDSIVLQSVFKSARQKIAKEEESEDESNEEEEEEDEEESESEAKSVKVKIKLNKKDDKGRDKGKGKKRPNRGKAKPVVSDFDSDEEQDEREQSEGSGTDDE

In the case of `Cc1ncsc1-c1ccc([C@H](C)NC(=O)[C@@H]2C[C@@H](O)CN2C(=O)[C@@H](c2cc(OCCN(C(C)C)[C@H]3CC[C@H](O[C@H]4C[C@H](Oc5cc(N6C7CCC6CN(c6cc(-c8ccccc8O)nnc6N)C7)ccn5)C4)CC3)no2)C(C)C)cn1` [compound 505, (2S,4R)-1-((2R)-2-(3-(2-(((1R,4R)-4-((1r,3R)-3-((4-(3-(3-amino-6-(2-hydroxyphenyl)pyridazin-4-yl)-3,8-diazabicyclo[3.2.1]octan-8-yl)pyridin-2-yl)oxy)cyclobutoxy)cyclohexyl)(isopropyl)amin 0)ethoxy)isoxazol-5-yl)-3-methylbutanoyl)-4-hydroxy-N-((S)-1-(6-(4-methylthiazol-5-yl)pyridin-3-yl)ethyl)pyrrolidine-2-carboxamide], the DC50 (BRM degradation, read-out: BRM DC50) is 2.5 to 10 nM. Moreover, under setting [1], the Dmax was > 75%.
Consider `Cc1ncsc1-c1ccc(CNC(=O)[C@@H]2C[C@@H](O)CN2C(=O)[C@@H](NC(=O)COCCOCCOCCOCCOCCOc2cc(N3[C@@H]4CC[C@H]3CN(c3cc(-c5ccccc5O)nnc3N)C4)ccn2)C(C)(C)C)cc1` [compound 9, (2S,4R)-1-((S)-20-((4-((1R,5S)-3-(3-amino-6-(2-hydroxyphenyl)pyridazin-4-yl)-3,8-diazabicyclo[3.2.1]octan-8-yl)pyridin-2-yl)oxy)-2-(tert-butyl)-4-oxo-6,9,12,15,18-pentaoxa-3-azaicosanoyl)-4-hydroxy-N-(4-(4-methylthiazol-5-yl)benzyl)pyrrolidine-2-carboxamide], for which the DC50 under setting [2] is 2.5 to 10 nM. In addition, the Dmax (BRM degradation, SW1573 cells, when tested at the top concentration of between 0.3 and 10 μM, read-out: Dmax (%) (% degraded)) is > 75%.
Regarding `Cc1ncsc1-c1ccc([C@H](C)NC(=O)[C@@H]2C[C@@H](O)CN2C(=O)[C@H](c2cc(N3CCC4(CC3)CN(CC3CCN(C[C@H]5C[C@H](Oc6cc(N7C8CCC7CN(c7cc(-c9ccccc9O)nnc7N)C8)ccn6)C5)CC3)C4)no2)C(C)C)cc1` [compound 694, (2S,4R)-1-((2S)-2-(3-(2-((1-(((1r,3r)-3-((4-(3-(3-amino-6-(2-hydroxyphenyl)pyridazin-4-yl)-3,8-diazabicyclo[3.2.1]octan-8-yl)pyridin-2-yl)oxy)cyclobutyl)methyl)piperidin-4-yl)methyl)-2,7-diazaspiro[3.5]nonan-7-yl)isoxazol-5-yl)-3-methylbutanoyl)-4-hydroxy-N-((S)-1-(4-(4-methylthiazol-5-yl)phenyl)ethyl)pyrrolidine-2-carboxamide], the DC50 under setting [2] was > 30 nM.
In the case of `COCC[C@@H](NC(=O)[C@@H]1C[C@@H](O)CN1C(=O)[C@@H](c1cc(N2CCC(CN3CCC(O[C@H]4C[C@H](Oc5cc(N6C7CCC6CN(c6cc(-c8ccccc8O)nnc6N)C7)ccn5)C4)CC3)CC2)no1)C(C)C)c1ccc(-c2scnc2C)cc1` [compound 669, (2S,4R)-1-((2R)-2-(3-(4-((4-((1r,3r)-3-((4-(3-(3-amino-6-(2-hydroxyphenyl)pyridazin-4-yl)-3,8-diazabicyclo[3.2.1]octan-8-yl)pyridin-2-yl)oxy)cyclobutoxy)piperidin-1-yl)methyl)piperidin-1-yl)isoxazol-5-yl)-3-methylbutanoyl)-4-hydroxy-N-((R)-3-methoxy-1-(4-(4-methylthiazol-5-yl)phenyl)propyl)pyrrolidine-2-carboxamide], the DC50 under setting [2] fell in the range of 10 to 30 nM. For the same compound, the Dmax under setting [3] lay in the range of 50 to 75%.
On the same counts, the results for `Cc1ncsc1-c1ccc([C@H](C)NC(=O)[C@@H]2C[C@@H](O)CN2C(=O)[C@H](c2cc(N3CCC(N4CCC(O[C@H]5C[C@H](Oc6cc(N7C8CCC7CN(c7cc(-c9ccccc9O)nnc7N)C8)ccn6)C5)CC4)CC3)no2)C(C)C)cc1` [compound 684, (2S,4R)-1-((2S)-2-(3-(4-((1r,3S)-3-((4-(3-(3-amino-6-(2-hydroxyphenyl)pyridazin-4-yl)-3,8-diazabicyclo[3.2.1]octan-8-yl)pyridin-2-yl)oxy)cyclobutoxy)-[1,4'-bipiperidin]-1'-yl)isoxazol-5-yl)-3-methylbutanoyl)-4-hydroxy-N-((S)-1-(4-(4-methylthiazol-5-yl)phenyl)ethyl)pyrrolidine-2-carboxamide] are 10 to 30 nM and 50 to 75%.
For `Cc1nccn1-c1ccc([C@H](C)NC(=O)[C@@H]2C[C@@H](O)CN2C(=O)[C@H](c2cc(N3CCC(O[C@H]4C[C@H](Oc5cc(N6C7CCC6CN(c6cc(-c8ccccc8O)nnc6N)C7)ccn5)C4)CC3)no2)C(C)C)cc1` [compound 600, (2S,4R)-1-((2S)-2-(3-(4-((1r,3S)-3-((4-(3-(3-amino-6-(2-hydroxyphenyl)pyridazin-4-yl)-3,8-diazabicyclo[3.2.1]octan-8-yl)pyridin-2-yl)oxy)cyclobutoxy)piperidin-1-yl)isoxazol-5-yl)-3-methylbutanoyl)-4-hydroxy-N-((S)-1-(4-(2-methyl-1H-imidazol-1-yl)phenyl)ethyl)pyrrolidine-2-carboxamide], the DC50 under setting [4] is > 30 nM.
Turning to `Cc1ncsc1-c1ccc([C@@H](CN)NC(=O)[C@@H]2C[C@@H](O)CN2C(=O)[C@@H](c2cc(OCCN3CCN(CCOc4cc(N5C6CCC5CN(c5cc(-c7ccccc7O)nnc5N)C6)ccn4)CC3)no2)C(C)C)cc1` [compound 256, (2S,4R)-N-((S)-2-amino-1-(4-(4-methylthiazol-5-yl)phenyl)ethyl)-1-((2R)-2-(3-(2-(4-(2-((4-(3-(3-amino-6-(2-hydroxyphenyl)pyridazin-4-yl)-3,8-diazabicyclo[3.2.1]octan-8-yl)pyridin-2-yl)oxy)ethyl)piperazin-1-yl)ethoxy)isoxazol-5-yl)-3-methylbutanoyl)-4-hydroxypyrrolidine-2-carboxamide], under setting [2], the DC50 is > 30 nM.
In the case of `Cc1cnsc1-c1ccc([C@H](C)NC(=O)[C@@H]2C[C@@H](O)CN2C(=O)[C@@H](c2cc(OCCN3CCN(CCOc4cc(N5C6CCC5CN(c5cc(-c7ccccc7O)nnc5N)C6)ccn4)CC3)no2)C(C)C)cc1` [compound 266, (2S,4R)-1-((2R)-2-(3-(2-(4-(2-((4-(3-(3-amino-6-(2-hydroxyphenyl)pyridazin-4-yl)-3,8-diazabicyclo[3.2.1]octan-8-yl)pyridin-2-yl)oxy)ethyl)piperazin-1-yl)ethoxy)isoxazol-5-yl)-3-methylbutanoyl)-4-hydroxy-N-((S)-1-(4-(4-methylisothiazol-5-yl)phenyl)ethyl)pyrrolidine-2-carboxamide], under setting [2], the half-maximal degradation concentration (DC50) is < 2.5 nM. In addition, the Dmax (BRM degradation, SW1573 cells, tested at the top concentration of between 0.3 and 10 μM, read-out: Dmax (%) (% degraded)) was > 75%.
Consider `Cc1ncsc1-c1ccc([C@H](C)NC(=O)[C@@H]2C[C@@H](O)CN2C(=O)[C@@H](c2cc(OCCCOc3cc(N4C5CCC4CN(c4cc(-c6ccccc6O)nnc4N)C5)ccn3)no2)C(C)C)cc1` [compound 614, (2S,4R)-1-((2R)-2-(3-(3-((4-(3-(3-amino-6-(2-hydroxyphenyl)pyridazin-4-yl)-3,8-diazabicyclo[3.2.1]octan-8-yl)pyridin-2-yl)oxy)propoxy)isoxazol-5-y1)-3-methylbutanoyl)-4-hydroxy-N-((S)-1-(4-(4-methylthiazol-5-yl)phenyl)ethyl)pyrrolidine-2-carboxamide], for which the Dmax (BRM degradation, SW1573 cells, Table 2D, read-out: **Dmax (%) (% degraded)) was > 75%. In addition, the DC50 under setting [4] is < 2.5 nM.
As to `Cc1cc([C@H](C(=O)N2C[C@H](O)C[C@H]2C(=O)N[C@@H](C)c2ccc(-c3scnc3C)cc2)[C@@H](C)COCCCCOc2cc(N3C4CCC3CN(c3cc(-c5ccccc5O)nnc3N)C4)ccn2)on1` [compound 432, (2S,4R)-1-((2R,3R)-4-(4-((4-(3-(3-amino-6-(2-hydroxyphenyl)pyridazin-4-yl)-3,8-diazabicyclo[3.2.1]octan-8-yl)pyridin-2-yl)oxy)butoxy)-3-methyl-2-(3-methylisoxazol-5-yl)butanoyl)-4-hydroxy-N-((S)-1-(4-(4-methylthiazol-5-yl)phenyl)ethyl)pyrrolidine-2-carboxamide], the Dmax under setting [1] is > 75%. Further, the DC50 (degradation of BRM, read-out: BRM DC50) fell in the range of 10 to 30 nM.
Regarding `Cc1ncsc1-c1ccc([C@H](C)NC(=O)[C@@H]2C[C@@H](O)CN2C(=O)[C@H](c2cc(OCCC3CCN(C(=O)[C@H]4C[C@@H](CN5CCC([C@@H](C)n6cc(-c7cc(-c8ccccc8O)nnc7N)cn6)CC5)C4)CC3)no2)C(C)C)cc1` [compound 451, (2S,4R)-1-((S)-2-(3-(2-(1-((1S,3R)-3-((4-((R)-1-(4-(3-amino-6-(2-hydroxyphenyl)pyridazin-4-yl)-1 H-pyrazol-1-yl)ethyl)piperidin-1-yl)methyl)cyclobutane-1-carbonyl)piperidin-4-yl)ethoxy)isoxazol-5-yl)-3-methylbutanoyl)-4-hydroxy-N-((S)-1-(4-(4-methylthiazol-5-yl)phenyl)ethyl)pyrrolidine-2-carboxamide], under setting [1], the Dmax was > 75%. Further, under setting [5], the DC50 is < 2.5 nM.
For `Cc1ncsc1-c1ccc([C@H](C)NC(=O)[C@@H]2C[C@@H](O)CN2C(=O)[C@H](c2cc(OC3CN(CCN4CCC(O[C@H]5C[C@H](Oc6cc(N7C8CCC7CN(c7cc(-c9ccccc9O)nnc7N)C8)ccn6)C5)CC4)C3)no2)C(C)C)cc1` [compound 370, (2S,4R)-1-((2S)-2-(3-((1-(2-(4-((1r,3r)-3-((4-(3-(3-amino-6-(2-hydroxyphenyl)pyridazin-4-yl)-3,8-diazabicyclo[3.2.1]octan-8-yl)pyridin-2-yl)oxy)cyclobutoxy)piperidin-1-yl)ethyl)azetidin-3-yl)oxy)isoxazol-5-yl)-3-methylbutanoyl)-4-hydroxy-N-((S)-1-(4-(4-methylthiazol-5-yl)phenyl)ethyl)pyrrolidine-2-carboxamide], in that order: > 75% and 10 to 30 nM.
